Measurements reported in patent US8901118B2, “Compounds and methods for kinase modulation, and indications therefor” (Plexxikon Inc., priority 2010, dated 2014).

Tests used:
[1] = Relative solubility by turbidity in aqueous buffers (pH 1.5, 4.5, 6.8, 7.4); format: physicochemical; conditions: for turbidity threshold (L, M, H) 1.4: pH 1.5 (SGF); for turbidity threshold (L, M, H) 4.5: pH 4.5 (SIF); for turbidity threshold (L, M, H) 6.8: pH 6.8 (SIF); for turbidity threshold (L, M, H) 7.4: pH 7.4 (HEPES)
Protocol: As an indication of relative solubility, the turbidity of compounds in aqueous solutions is assessed. To assess possible compound properties in different physiological compartments, such as stomach, intestine, and blood, a series of aqueous buffers with varying pH is used. Thus each compound is diluted into four different physiologically relevant buffers and solution turbidity is measured by spectrophotometry.
Compounds are dissolved at a concentration of 25 mM in dimethyl sulfoxide, then serially diluted 1:1 into a 96 well plate, diluting 10 times in pure dimethyl sulfoxide, with the final well of each row a dimethyl sulfoxide blank. In an assay plate, 99 μL of appropriate buffer is added to each well, and 1 μL of each sample dilution is added to the buffer, achieving a range of final total concentrations in aqueous solutions having different pH. The buffers used are Simulated Gastric Fluid (SGF-pH 1.5) 0.5M NaCl, pH 1.5; Simulated Intestinal fluid (SIF-pH 4.5 and pH 6.8) 0.05M NaH2PO4, pH 4.5 and 6.8; and Hepes Buffer (HEPES-pH 7.4) 10 mM HEPES, 150 mM NaCl, pH 7.4. Control compounds pyrene, estriol and propranolol HCl are also assessed. Plates are spun and then mixed for 1 minute, and the absorbance is read using a Tecan Safire II to read wavelengths in the visible range (490, 535, and 650 nm) at four locations per well, reflecting the degree of turbidity present. The average optical density for each wavelength in each well is graphed vs. compound concentration, and the concentration at which the curve crosses a threshold O.D. of 0.01 for each wavelength is reported as the endpoint turbidity assay result. The average of the three wavelengths is used to compare turbidity of compounds.

[2] = target: CYP3A4(BFC) (Homo sapiens, UniProt P08684); test: CYP3A4(BFC) inhibition; format: in vitro ADME; conditions: CYP3A4, substrate BFC; read-out: Cyp IC50 3A4(BFC)
Chain of CYP3A4(BFC) (P08684 whole entry): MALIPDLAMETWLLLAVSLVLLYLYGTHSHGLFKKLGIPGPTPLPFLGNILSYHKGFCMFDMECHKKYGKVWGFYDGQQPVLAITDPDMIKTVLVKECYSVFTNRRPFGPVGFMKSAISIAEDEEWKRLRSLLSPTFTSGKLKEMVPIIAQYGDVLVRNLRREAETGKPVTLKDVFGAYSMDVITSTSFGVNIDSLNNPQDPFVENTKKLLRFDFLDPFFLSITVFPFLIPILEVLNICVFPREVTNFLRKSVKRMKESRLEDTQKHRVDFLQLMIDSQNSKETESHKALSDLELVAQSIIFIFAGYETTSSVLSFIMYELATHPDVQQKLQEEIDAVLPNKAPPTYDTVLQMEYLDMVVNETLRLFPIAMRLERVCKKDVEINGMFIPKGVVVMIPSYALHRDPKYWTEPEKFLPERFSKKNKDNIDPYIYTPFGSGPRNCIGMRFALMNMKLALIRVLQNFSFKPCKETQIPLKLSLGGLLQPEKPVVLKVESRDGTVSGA
Protocol: CYP (Cytochrome P450) enzymes are the major drug metabolizing enzymes present in the liver. The inhibition of CYP enzyme activity (IC50) for each of CYP1A2, CYP2C19, CYP2C9, CYP2D6, CYP3A4(BFC) and CYP3A4(BQ) is determined for compounds, where inhibition of metabolism of a known substrate leads to a decrease in the fluorescence of the metabolized product. The fluorescence of the product is monitored as a function of compound concentration. Compounds are dissolved in DMSO to a concentration of 100 mM. These are diluted 1 μL into 82 μL of acetonitrile. An 11 μL aliquot of this solution is then added to 204 μL of cofactor mix (1.3% NADPH Regeneration system Solution A, 1.04% NADPH Regeneration system Solution B from BD Biosciences, 5% acetonitrile and 0.05% DMSO). These are then serially diluted 1:1 (160 μL to 160 μL co-factor mix) for a total of 10 points. A 10 μL aliquot of this final mixture is dispensed into 384 well assay plates and incubated for 10 minutes at 37° C. […] Assay plates are incubated at 37° C. (CYP1A2-15 min; CYP2C9-45 min; CYP2C19, 2D6 and 3A4-30 min) and read in a Tecan Safire 2 plate reader (CYP1A2, 2C19 and 3A4 409 ex/460 em; CYP2C9 and 2D6 409 ex/530 em). The signal versus compound concentration is used to determine the IC50. The enzymes and substrates for this assay are obtained from BD Biosciences.

SMILES	turbidity threshold (L, M, H) 1.4 [1]	turbidity threshold (L, M, H) 4.5 [1]	turbidity threshold (L, M, H) 6.8 [1]	turbidity threshold (L, M, H) 7.4 [1]	IC50 [2] [µM]
CCc1ccc(Nc2ccc(C(=O)c3c[nH]c4ncnc(NC5CCOCC5)c34)c(F)n2)cn1 [Compound P-4116, [6-[(6-ethyl-3-pyridyl)amino]-2-fluoro-3-pyridyl]-[4-(tetrahydropyran-4-ylamino)-7H-pyrrolo[2,3-d]pyrimidin-5-yl]methanone]	H (high solubility if the threshold concentration is >250 μm)	M (moderate solubility if the threshold concentration is 31.3 μM to 250 μM)	M (moderate solubility if the threshold concentration is 31.3 μM to 250 μM)	M (moderate solubility if the threshold concentration is 31.3 μM to 250 μM)	> 10
Cc1ccc(Nc2ccc(C(=O)c3c[nH]c4ncnc(NC5CCCCC5)c34)c(F)n2)cn1 [Compound P-4111, [4-(cyclohexylamino)-7H-pyrrolo[2,3-d]pyrimidin-5-yl]-[2-fluoro-6-[(6-methyl-3-pyridyl)amino]-3-pyridyl]methanone]	H (high solubility if the threshold concentration is >250 μm)	L (low solubility if the threshold concentration is <31.3 μM)	L (low solubility if the threshold concentration is <31.3 μM)	L (low solubility if the threshold concentration is <31.3 μM)	> 10
COc1ccc(Nc2ccc(C(=O)c3c[nH]c4ncnc(NC(C)C)c34)c(F)n2)cn1 [Compound P-4066, [2-fluoro-6-[(6-methoxy-3-pyridyl)amino]-3-pyridyl]-[4-(isopropylamino)-7H-pyrrolo[2,3-d]pyrimidin-5-yl]methanone]	M (moderate solubility if the threshold concentration is 31.3 μM to 250 μM)	L (low solubility if the threshold concentration is <31.3 μM)	L (low solubility if the threshold concentration is <31.3 μM)	M (moderate solubility if the threshold concentration is 31.3 μM to 250 μM)	> 10
O=C(c1ccc(NC2CCC(F)(F)CC2)nc1)c1c[nH]c2ncnc(NCC(F)(F)F)c12 [Compound P-4087, [6-[(4,4-difluorocyclohexyl)amino]-3-pyridyl]-[4-(2,2,2-trifluoroethylamino)-7H-pyrrolo[2,3-d]pyrimidin-5-yl]methanone]	H (high solubility if the threshold concentration is >250 μm)	M (moderate solubility if the threshold concentration is 31.3 μM to 250 μM)	M (moderate solubility if the threshold concentration is 31.3 μM to 250 μM)	M (moderate solubility if the threshold concentration is 31.3 μM to 250 μM)	> 10
CNc1ncnc2[nH]cc(C(=O)c3ccc(Nc4ccc(C5CC5)nc4)nc3F)c12 [Compound P-4094, [6-[(6-cyclopropyl-3-pyridyl)amino]-2-fluoro-3-pyridyl]-[4-(methylamino)-7H-pyrrolo[2,3-d]pyrimidin-5-yl]methanone]	H (high solubility if the threshold concentration is >250 μm)	L (low solubility if the threshold concentration is <31.3 μM)	M (moderate solubility if the threshold concentration is 31.3 μM to 250 μM)	M (moderate solubility if the threshold concentration is 31.3 μM to 250 μM)	> 10
COc1ccc(Nc2ccc(C(=O)c3c[nH]c4ncnc(NC5CCC5)c34)c(F)n2)cn1 [Compound P-4076, [4-(cyclobutylamino)-7H-pyrrolo[2,3-d]pyrimidin-5-yl]-[2-fluoro-6-[(6-methoxy-3-pyridyl)amino]-3-pyridyl]methanone]	M (moderate solubility if the threshold concentration is 31.3 μM to 250 μM)	M (moderate solubility if the threshold concentration is 31.3 μM to 250 μM)	M (moderate solubility if the threshold concentration is 31.3 μM to 250 μM)	L (low solubility if the threshold concentration is <31.3 μM)	> 10
CCc1ccc(Nc2ccc(C(=O)c3c[nH]c4ncnc(NCC(F)(F)F)c34)c(F)n2)cn1 [Compound P-4120, [6-[(6-ethyl-3-pyridyl)amino]-2-fluoro-3-pyridyl]-[4-(2,2,2-trifluoroethylamino)-7H-pyrrolo[2,3-d]pyrimidin-5-yl]methanone]	L (low solubility if the threshold concentration is <31.3 μM)	M (moderate solubility if the threshold concentration is 31.3 μM to 250 μM)	M (moderate solubility if the threshold concentration is 31.3 μM to 250 μM)	M (moderate solubility if the threshold concentration is 31.3 μM to 250 μM)	> 10
Fc1ccc(Nc2ncc(Cc3c[nH]c4ncc(Cl)cc34)cn2)cc1 [Compound P-3012, [5-(5-Chloro-1H-pyrrolo[2,3-b]pyridin-3-ylmethyl)-pyrimidin-2-yl]-(4-fluoro-phenyl)-amine]	M (moderate solubility if the threshold concentration is 31.3 μM to 250 μM)	M (moderate solubility if the threshold concentration is 31.3 μM to 250 μM)	M (moderate solubility if the threshold concentration is 31.3 μM to 250 μM)	M (moderate solubility if the threshold concentration is 31.3 μM to 250 μM)	> 10
COc1ccc(Nc2ccc(C(=O)c3c[nH]c4ncnc(NCC(F)(F)F)c34)c(F)n2)cn1 [Compound P-4084, [2-fluoro-6-[(6-methoxy-3-pyridyl)amino]-3-pyridyl]-[4-(2,2,2-trifluoroethylamino)-7H-pyrrolo[2,3-d]pyrimidin-5-yl]methanone]	M (moderate solubility if the threshold concentration is 31.3 μM to 250 μM)	M (moderate solubility if the threshold concentration is 31.3 μM to 250 μM)	M (moderate solubility if the threshold concentration is 31.3 μM to 250 μM)	H (high solubility if the threshold concentration is >250 μm)	> 10
COc1ccc(Nc2ccc(C(=O)c3c[nH]c4ncnc(NCC5CC5)c34)c(F)n2)cn1 [Compound P-4067, [4-(cyclopropylmethylamino)-7H-pyrrolo[2,3-d]pyrimidin-5-yl]-[2-fluoro-6-[(6-methoxy-3-pyridyl)amino]-3-pyridyl]methanone]	H (high solubility if the threshold concentration is >250 μm)	M (moderate solubility if the threshold concentration is 31.3 μM to 250 μM)	M (moderate solubility if the threshold concentration is 31.3 μM to 250 μM)	M (moderate solubility if the threshold concentration is 31.3 μM to 250 μM)	> 10
